Activity calls are given as the source filed them. No cut-off for these calls is given here.
Assays:
[1] = biological target: T1, Estrogen receptor (Homo sapiens) (UniProt P03372); assay: Activity at human estrogen receptor expressed in transgenic Arabidopsis plant at >10 uM by pER8-GFP reporter assay
T1 sequence (whole entry): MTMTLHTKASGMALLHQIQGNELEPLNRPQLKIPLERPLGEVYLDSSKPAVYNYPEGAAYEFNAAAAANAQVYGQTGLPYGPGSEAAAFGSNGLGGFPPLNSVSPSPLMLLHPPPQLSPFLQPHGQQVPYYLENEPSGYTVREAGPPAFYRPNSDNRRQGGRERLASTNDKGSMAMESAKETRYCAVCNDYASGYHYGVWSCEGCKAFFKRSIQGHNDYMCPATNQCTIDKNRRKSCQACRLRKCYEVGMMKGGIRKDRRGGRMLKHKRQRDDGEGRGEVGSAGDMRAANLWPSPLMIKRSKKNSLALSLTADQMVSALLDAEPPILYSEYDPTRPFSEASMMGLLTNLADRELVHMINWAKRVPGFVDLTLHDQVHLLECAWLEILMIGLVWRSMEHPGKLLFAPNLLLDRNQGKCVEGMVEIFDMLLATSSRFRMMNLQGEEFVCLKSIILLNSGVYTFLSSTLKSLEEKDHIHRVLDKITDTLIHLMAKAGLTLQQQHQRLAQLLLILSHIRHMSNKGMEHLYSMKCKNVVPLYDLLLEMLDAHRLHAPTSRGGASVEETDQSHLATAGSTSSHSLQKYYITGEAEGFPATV

[2] = biological target: T1, Estrogen receptor (Homo sapiens); assay: Activity at human estrogen receptor expressed in transgenic Arabidopsis plant at >100 ug/mL by pER8-GFP reporter assay
[3] = biological target: T1, Estrogen receptor (Homo sapiens); assay: Activity at human estrogen receptor expressed in transgenic Arabidopsis plant at >100 uM by pER8-GFP reporter assay

`C[C@]12CC[C@H]3[C@@H](CCC4=CC(=O)CC[C@@]43C)[C@@H]1CC[C@@H]2O` was tested, and the Activity [1] was “Active”.

`O=c1c(-c2ccc(O)cc2)coc2c([C@@H]3O[C@H](CO)[C@@H](O)[C@H](O)[C@H]3O)c(O)ccc12` was tested, and the Activity [2] was “Active”.

With `O=C1C=CC(O)(c2cc(=O)c3c(O)cc(O)cc3o2)C=C1` the Activity [3] was “Active”.

From ChEMBL document CHEMBL1158799, “The transgenic Arabidopsis plant system, pER8-GFP, as a powerful tool in searching for natural product estrogen-agonists/antagonists” (J Nat Prod, 2005)
